Reference: patent US11845746B1 (priority 2023, dated 2023)

Structure (SMILES) | melting point [°C]
CCOC(=O)c1cc(C(=O)c2ccc(C)cc2)n2c1ccc1cc(C)ccc12 | 155 to 156
CCOC(=O)c1cc(C(=O)c2ccccc2)n2c1ccc1cc(C)ccc12 | 139 to 140
CCOC(=O)c1cc(C(=O)c2cc(C(F)(F)F)cc(C(F)(F)F)c2)n2c1ccc1cc(C)ccc12 [Compound 4f, Ethyl 1-(3,5-bis(trifluoromethyl)benzoyl)-7-methylpyrrolo[1,2-a]quinoline-3-carboxylate] | 223 to 224
CCOC(=O)c1cc(C(=O)c2ccccc2[N+](=O)[O-])n2c1ccc1cc(C)ccc12 [Compound 4d, Ethyl 7-methyl-1-(2-nitrobenzoyl)pyrrolo[1,2-a]quinoline-3-carboxylate] | 174 to 175

The remaining lines, values ahead:

melting point [°C] | Structure (SMILES)
180 to 181 | CCOC(=O)c1cc(C(=O)c2ccc(Br)cc2)n2c1ccc1cc(C)ccc12 [Compound 4e, Ethyl 1-(4-bromobenzoyl)-7-methylpyrrolo[1,2-a]quinoline-3-carboxylate]
163 to 164 | CCOC(=O)c1cc(C(=O)c2ccc(F)cc2)n2c1ccc1cc(C)ccc12
